According to paper PMC3103436 (Journal of Translational Medicine, 2011):

Key:
HLMs = experiment: Chemical inhibition assays of BBR metabolism in HLMs; type: in vitro ADME, human; conditions: BBR 15 μM, inhibitor 5 μM, 30 min, control without inhibitor = 100%
Procedure: (§1) The incubation was performed in duplicates.
The incubations were performed in duplicates.
(§2) The flow-rate was 0.2 ml/min. […] The MS was operated in positive ESI mode. […] Data were analyzed by Xcalibur 1.2 software.

CYP2C9 = biological target: T1, CYP2C9 (Homo sapiens, UniProt P11712); experiment: BBR metabolism in recombinant human CYP450 isoenzyme; type: in vitro ADME; conditions: BBR 20 μM, 50 pmol/ml rCYP450, 30 min
T1 construct: purchased BD Gentest; host or cells: baculovirus-insect cells
T1 sequence (P11712 whole entry): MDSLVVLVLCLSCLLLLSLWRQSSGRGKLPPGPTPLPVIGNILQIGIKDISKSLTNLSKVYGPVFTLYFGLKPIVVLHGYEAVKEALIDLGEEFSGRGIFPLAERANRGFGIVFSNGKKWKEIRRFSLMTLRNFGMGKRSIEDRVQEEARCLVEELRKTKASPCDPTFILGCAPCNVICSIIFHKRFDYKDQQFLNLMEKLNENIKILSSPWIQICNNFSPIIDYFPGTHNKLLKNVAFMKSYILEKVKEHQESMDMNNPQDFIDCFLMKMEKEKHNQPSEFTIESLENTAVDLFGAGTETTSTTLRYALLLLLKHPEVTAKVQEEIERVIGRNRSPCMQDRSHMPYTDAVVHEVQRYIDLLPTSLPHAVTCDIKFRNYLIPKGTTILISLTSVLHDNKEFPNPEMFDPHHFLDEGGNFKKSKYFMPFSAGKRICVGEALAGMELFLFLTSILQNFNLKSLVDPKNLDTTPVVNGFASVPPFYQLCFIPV
Procedure: The experiment was performed with the condition described in the method using HLMs for transformation. […] Control microsome prepared from insect cells, which were infected with wild-type baculovirus, severed as a negative control. The incubation was performed in duplicates.
Sample analysis was performed using an LC-MS/MS system (Thermo-Finnigan, San Jose, CA, USA), which consisted of a Surveyor LC pump with an on-line degasser, a Surveyor autosampler and a TSQ Quantum triple-quadrupole mass spectrometer equipped with an ESI probe. A Waters XTerra® MS C18 (2.1 ×50 mm, 3.5 μm) column (Milford, MA, USA) was used for separation at 25°C. The mobile phase consisted of 0.2% acetic acid in water (A) and 100% acetonitrile (B). The flow-rate was 0.2 ml/min. […] The column was allowed to equilibrate for 10 min after each run. Only the data from 2 min to 15 min was acquired by MS. The MS was operated in positive ESI mode. Nitrogen was used as both the sheath and auxiliary gas at a pressure of 35 and 10 arbitrary units, respectively. The spray voltage was set at 4.0 kV and the capillary temperature was at 270°C. […] The most abundant product ion of each chemical was chosen for selected reaction monitoring (SRM). Data were analyzed by Xcalibur 1.2 software.

LDLR mRNA = LDLR mRNA real-time RT-PCR in HepG2 cells; type: cell-based, human; conditions: HepG2, 40 μM, 8 hrs
Procedure: (§3) The Human hepatoma cell line HepG2 was obtained from the American Tissue Culture Collection (ATCC, USA). HepG2 cells were grown in Eagle's Minimum Essential Medium (GIBCO) supplemented with 10% fetal bovine serum (GIBCO), 1% non-essential amino acids (GIBCO) and 1% antibiotics (100 units/ml of penicillin and 100 μg/ml of streptomycin), and incubated at 37°C in a humidified atmosphere with 5% CO2.
(§4) The study compounds were diluted in culture medium prior to use.
(§5) Total cellular RNAs were isolated by the Ultraspec RNA lysis solution (Biotecxs Laboratory, Houston, TX) by following the vender's instruction. Total RNAs were reversely transcribed into cDNAs using the Reverse Transcription System (Promega, Madison, WI). Quantitative real time PCR was performed with these cDNAs as described previously, with β-Actin as an internal control. Normalized InsR or LDLR mRNA expression levels were plotted as fold of the untreated control. The primers used were described previously.

InsR mRNA = InsR mRNA real-time RT-PCR in HepG2 cells; type: cell-based, human; conditions: HepG2, 20 μM, 8 hrs, fold of untreated control
Procedure: as §3, §4, §5

InsR = experiment: Double immune-staining and flow cytometry, cell-surface protein expression in HepG2; type: cell-based, human; conditions: HepG2, 8 hrs; BBR 27 μM, simvastatin 1 μM, rosiglitazone 10 μM
Procedure: (§6) The Human hepatoma cell line HepG2 was obtained from the American Tissue Culture Collection (ATCC, USA). […] The study compounds were diluted in culture medium prior to use. […] The corresponding isotype-matched, nonspecific mouse and rabbit IgGs were used respectively as controls for nonspecific staining. After washing in PBS, cells were stained with a fluorescein isothiocyanate (FITC)-conjugated goat anti-mouse IgG (green color, Santa Cruz Biotechnology), as well as a tetramethyl rhodamine isothiocyanate (TRITC)-conjugated goat anti-rabbit IgG (red color, Santa Cruz Biotechnology). The fluorescence intensities were analyzed in a FACS (FACSort, Becton Dickinson).

LDLR = experiment: as above; type: cell-based, human; conditions: HepG2, 8 hrs; BBR 27 μM, simvastatin 1 μM, rosiglitazone 10 μM
Procedure: as §6

AMPK = experiment: AMPK-alpha phosphorylation immunoblot in HepG2 cells; type: cell-based, human; conditions: HepG2, 20 μM, 24 hrs
Procedure: as §3, §4
Sample cells were rinsed with phosphate-buffered saline and lysed in SDS-PAGE loading buffer. Cell lysates were subjected to 8% SDS-PAGE for protein separation, and protein bands were transferred onto polyvinylidene difluoride membranes (Millipore). The amount of protein and extent of phosphorylation were estimated using the following primary rabbit antibodies, anti-phospho-AMPK-α-Thr-172 antibody, anti-AMPK-α antibody as well as anti-β-actin antibody (Cell signaling Technology, USA). The secondary antibody was peroxidase-conjugated goat anti-rabbit antibody (Cell signaling Technology, USA).

[1] = ref [34]; cited from earlier work
[2] = oral administration, cited from earlier work
[3] = BBR metabolites in rat liver after oral BBR, LC-MS/MS; type: in vivo, Male Wistar rats; conditions: 3 hrs after BBR oral administration 200 mg/kg; for Detection of metabolite in rat liver: LC-MS/MS; for Relative level of metabolite in rat liver: among M1-M4
Procedure: Male Wistar rats (200-240 g, 8-week-old) purchased from Vital River Laboratories (Beijing, China) fasted overnight and were free access to water before drug administration. […] 2 g of the liver sample was washed with 5 mL normal saline, cut into small pieces and extracted with 3-fold volume acetonitrile. After vortexed for 3 min, the extract was centrifuged at 16000 g for 15 min at 4°C and the supernatant was diluted with 0.2% acetic acid. Ten microlitre dilution aliquot was injected into the LC-MS/MS system for analysis.
as §2

rCYP450 isoenzymes = experiment: Detection of BBR metabolites after incubation with rCYP450 isoenzymes; type: in vitro ADME, human; conditions: cell-free reaction, LC-MS/MS
Procedure: as §1, §2

human liver microsomes = experiment: BBR metabolism in human liver microsomes (HLMs); type: in vitro ADME; conditions: cell-free reaction, LC-MS/MS
Procedure: Incubation conditions were optimized to ensure the linearity with respect to the microsomal protein concentration and incubation time. […] After incubation of the mixture in a 37°C water bath with opening to the air, the reaction lasted for 30 min and was terminated by addition of 800 μl cold acetonitrile. Internal standard (40 μg/ml ampicillin, dissolved in acetonitrile) was added into the mixture, and then centrifuged at 16000 g for 15 min at 4°C. The supernatant was aspirated, followed by dilution in 0.2% acetic acid. 10 μl of the aliquot was injected into the LC-MS/MS system for analysis. Control samples were incubated without NADPH. The incubation was performed in duplicates.
as §2

For `O=c1cc(-c2ccccc2)oc2c1ccc1ccccc12` [ANF, α-naphthoflavone], the “Decrease of M2 formation” value (HLMs) was “about 40%”.
For `COc1ccc2cc3[n+](cc2c1OC)CCc1cc2c(cc1-3)OCO2` [BBR, Berberine], the “Transformation of BBR into metabolites by CYP2C9” value (CYP2C9) was “very weak effect”, the “Effect on LDLR mRNA expression” value (LDLR mRNA) was “strongest up-regulator” and the “Increase of InsR mRNA level” value (InsR mRNA) was “over 2 folds”. The “Effect on cell-surface InsR protein expression” value (InsR) was “up-regulatory effect”, the “Effect on cell-surface LDLR protein expression” value (LDLR) was “up-regulatory effect” and the “AMPK activation (AMPK-alpha phosphorylation)” value (“AMPK activation” below) (AMPK) was “most active compound”. For the same molecule, the “Share of BBR entering into blood stream (absorption in human gut)” value [1] was “less than 10%”, the “Reduction of blood cholesterol, triglyceride and glucose” value ([2]; patients with hyperlipidemia and type 2 diabetes, ref [2],[3],[5]-[7]) was “significant reduction” and the “Side-effects on liver, kidney and muscle” value ([2]; patients, ref [2],[5]) was “no side-effects”.
For `CC(=O)N1CCN(c2ccc(OCC3COC(Cn4ccnc4)(c4ccc(Cl)cc4Cl)O3)cc2)CC1` (stereo not drawn) [KET, ketoconazole], the “Decrease of M2 formation” value (HLMs) was “not”.
In the case of `COc1ccc2cc3[n+](cc2c1O)CCc1cc2c(cc1-3)OCO2` [M1, berberrubine], the “Detection of metabolite in rat liver” value [3] is reported as “detectable”, the “Relative level of metabolite in rat liver” value [3] is reported as “lowest” and the “Detection of metabolite after incubating BBR with rCYP450s” value (“Detection of metabolite … with rCYP450s” for short) (rCYP450 isoenzymes) is reported as “not detectable”. For the same molecule, the “Effect on LDLR mRNA expression” value (LDLR mRNA) was “remained to be active”, the “LDLR mRNA up-regulating activity as percent of that of BBR” value (LDLR mRNA) was 35% and the “AMPK activation” value (AMPK) was “increased the activity of AMPK but with a less potency”. The “Detection of metabolite after incubating BBR with HLMs” value (from here on “Detection of metabolite … with HLMs”) (human liver microsomes) was “not found”.
In the case of `COc1c(O)ccc2cc3[n+](cc12)CCc1cc2c(cc1-3)OCO2` [M2, thalifendine], the “Detection of metabolite in rat liver” value [3] is reported as “detectable”, the “Relative level of metabolite in rat liver” value [3] is reported as “highest level” and the “Detection of metabolite … with rCYP450s” value (rCYP450 isoenzymes) is reported as “detectable”. The “Effect on LDLR mRNA expression” value (LDLR mRNA) was “remained to be active”, the “LDLR mRNA up-regulating activity as percent of that of BBR” value (LDLR mRNA) was 26% and the “AMPK activation” value (AMPK) was “increased the activity of AMPK but with a less potency”. The “Detection of metabolite … with HLMs” value (human liver microsomes) was “detectable”.
With `COc1ccc2cc3[n+](cc2c1OC)CCc1cc(O)c(O)cc1-3` [M3, demethyleneberberine] the “Detection of metabolite in rat liver” value [3] was “detectable”, the “Detection of metabolite … with rCYP450s” value (rCYP450 isoenzymes) was “detectable” and the “Effect on LDLR mRNA expression” value (LDLR mRNA) was “without effect”. The “AMPK activation” value (AMPK) was “not significant” and the “Detection of metabolite … with HLMs” value (human liver microsomes) was “detectable”.
With `COc1cc2c(cc1O)CC[n+]1cc3c(OC)c(OC)ccc3cc1-2` [M4, jatrorrhizine] the “Detection of metabolite in rat liver” value [3] was “detectable”, the “Detection of metabolite … with rCYP450s” value (rCYP450 isoenzymes) was “not detectable” and the “Effect on LDLR mRNA expression” value (LDLR mRNA) was “without effect”. For the same molecule, the “AMPK activation” value (AMPK) was “not significant” and the “Detection of metabolite … with HLMs” value (human liver microsomes) was “not found”.
In the case of `CN(CCOc1ccc(CC2SC(=O)NC2=O)cc1)c1ccccn1` (stereo not drawn) [rosiglitazone], the “Effect on cell-surface InsR protein expression” value (InsR) is reported as “effect on neither LDLR nor InsR” and the “Effect on cell-surface LDLR protein expression” value (LDLR) is reported as “effect on neither LDLR nor InsR”.
With `CCC(C)(C)C(=O)O[C@H]1C[C@@H](C)C=C2C=C[C@H](C)[C@H](CC[C@@H]3C[C@@H](O)CC(=O)O3)[C@H]21` [simvastatin] the “Effect on cell-surface InsR protein expression” value (InsR) was “not InsR” and the “Effect on cell-surface LDLR protein expression” value (LDLR) was “increased LDLR expression only”.
